Assay results as given in US8022206B2 (OSI Pharmaceuticals, LLC, priority 2008, dated 2011).

Key:
RON (human) = RON (human) (Homo sapiens, UniProt Q04912); test: RON (human) AlphaScreen kinase assay, Km of ATP; assay type: biochemical; conditions: AlphaScreen, Km of ATP; read-out: RON biochemical IC50
In short: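 Reaction was started with enzyme and run 30 min at RT. PT66 donor/acceptor beads in an EDTA-containing Tris pH 7.5 buffer were then added, and the signal was read after 1 h.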

MET (human) = MET (human) (Homo sapiens, UniProt P08581); test: MET (human) AlphaScreen kinase assay, Km of ATP; assay type: biochemical; conditions: AlphaScreen, Km of ATP; read-out: Met biochemical IC50
Sequence of MET (human) (P08581 25-1390): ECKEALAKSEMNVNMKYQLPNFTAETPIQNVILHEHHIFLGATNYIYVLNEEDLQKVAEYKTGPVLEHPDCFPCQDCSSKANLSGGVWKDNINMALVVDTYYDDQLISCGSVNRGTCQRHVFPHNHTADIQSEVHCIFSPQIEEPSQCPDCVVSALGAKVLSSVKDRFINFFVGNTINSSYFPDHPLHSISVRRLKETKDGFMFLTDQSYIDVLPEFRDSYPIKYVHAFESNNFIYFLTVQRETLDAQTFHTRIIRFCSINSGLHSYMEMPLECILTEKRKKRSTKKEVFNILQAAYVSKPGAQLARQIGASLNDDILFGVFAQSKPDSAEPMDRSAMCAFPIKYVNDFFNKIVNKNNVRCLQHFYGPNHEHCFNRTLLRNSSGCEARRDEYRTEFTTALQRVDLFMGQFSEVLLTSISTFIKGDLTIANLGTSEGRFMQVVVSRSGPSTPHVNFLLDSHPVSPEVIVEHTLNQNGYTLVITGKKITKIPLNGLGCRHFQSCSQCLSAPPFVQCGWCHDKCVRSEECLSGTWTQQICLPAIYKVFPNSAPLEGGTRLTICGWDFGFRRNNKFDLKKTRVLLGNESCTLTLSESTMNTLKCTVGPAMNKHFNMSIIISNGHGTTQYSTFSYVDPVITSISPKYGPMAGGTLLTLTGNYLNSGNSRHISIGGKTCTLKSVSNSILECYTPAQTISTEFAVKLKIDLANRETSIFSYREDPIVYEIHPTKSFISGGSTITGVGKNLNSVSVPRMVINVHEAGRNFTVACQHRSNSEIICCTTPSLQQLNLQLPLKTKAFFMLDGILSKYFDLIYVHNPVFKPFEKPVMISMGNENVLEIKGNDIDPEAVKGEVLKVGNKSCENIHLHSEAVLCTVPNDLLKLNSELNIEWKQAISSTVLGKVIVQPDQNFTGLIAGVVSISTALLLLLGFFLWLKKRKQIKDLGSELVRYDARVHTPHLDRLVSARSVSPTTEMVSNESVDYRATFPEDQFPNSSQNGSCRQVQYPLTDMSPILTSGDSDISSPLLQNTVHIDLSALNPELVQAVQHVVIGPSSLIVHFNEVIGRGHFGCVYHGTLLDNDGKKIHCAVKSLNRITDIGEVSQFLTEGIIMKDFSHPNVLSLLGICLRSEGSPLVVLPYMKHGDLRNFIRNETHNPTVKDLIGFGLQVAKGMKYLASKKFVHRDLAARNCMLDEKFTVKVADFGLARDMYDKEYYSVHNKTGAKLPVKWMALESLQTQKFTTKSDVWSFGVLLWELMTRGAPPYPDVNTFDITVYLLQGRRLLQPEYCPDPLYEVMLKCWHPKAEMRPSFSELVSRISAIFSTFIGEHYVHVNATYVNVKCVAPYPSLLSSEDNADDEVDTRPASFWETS
In short: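 Human MET at lot-optimised concentration in 50 mM Tris pH 7.4 buffer with 1 mM DTT, compound at 1% DMSO final; enzyme starts the reaction, 60 min at RT.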

Sequence of RON (human) (Q04912 25-1400): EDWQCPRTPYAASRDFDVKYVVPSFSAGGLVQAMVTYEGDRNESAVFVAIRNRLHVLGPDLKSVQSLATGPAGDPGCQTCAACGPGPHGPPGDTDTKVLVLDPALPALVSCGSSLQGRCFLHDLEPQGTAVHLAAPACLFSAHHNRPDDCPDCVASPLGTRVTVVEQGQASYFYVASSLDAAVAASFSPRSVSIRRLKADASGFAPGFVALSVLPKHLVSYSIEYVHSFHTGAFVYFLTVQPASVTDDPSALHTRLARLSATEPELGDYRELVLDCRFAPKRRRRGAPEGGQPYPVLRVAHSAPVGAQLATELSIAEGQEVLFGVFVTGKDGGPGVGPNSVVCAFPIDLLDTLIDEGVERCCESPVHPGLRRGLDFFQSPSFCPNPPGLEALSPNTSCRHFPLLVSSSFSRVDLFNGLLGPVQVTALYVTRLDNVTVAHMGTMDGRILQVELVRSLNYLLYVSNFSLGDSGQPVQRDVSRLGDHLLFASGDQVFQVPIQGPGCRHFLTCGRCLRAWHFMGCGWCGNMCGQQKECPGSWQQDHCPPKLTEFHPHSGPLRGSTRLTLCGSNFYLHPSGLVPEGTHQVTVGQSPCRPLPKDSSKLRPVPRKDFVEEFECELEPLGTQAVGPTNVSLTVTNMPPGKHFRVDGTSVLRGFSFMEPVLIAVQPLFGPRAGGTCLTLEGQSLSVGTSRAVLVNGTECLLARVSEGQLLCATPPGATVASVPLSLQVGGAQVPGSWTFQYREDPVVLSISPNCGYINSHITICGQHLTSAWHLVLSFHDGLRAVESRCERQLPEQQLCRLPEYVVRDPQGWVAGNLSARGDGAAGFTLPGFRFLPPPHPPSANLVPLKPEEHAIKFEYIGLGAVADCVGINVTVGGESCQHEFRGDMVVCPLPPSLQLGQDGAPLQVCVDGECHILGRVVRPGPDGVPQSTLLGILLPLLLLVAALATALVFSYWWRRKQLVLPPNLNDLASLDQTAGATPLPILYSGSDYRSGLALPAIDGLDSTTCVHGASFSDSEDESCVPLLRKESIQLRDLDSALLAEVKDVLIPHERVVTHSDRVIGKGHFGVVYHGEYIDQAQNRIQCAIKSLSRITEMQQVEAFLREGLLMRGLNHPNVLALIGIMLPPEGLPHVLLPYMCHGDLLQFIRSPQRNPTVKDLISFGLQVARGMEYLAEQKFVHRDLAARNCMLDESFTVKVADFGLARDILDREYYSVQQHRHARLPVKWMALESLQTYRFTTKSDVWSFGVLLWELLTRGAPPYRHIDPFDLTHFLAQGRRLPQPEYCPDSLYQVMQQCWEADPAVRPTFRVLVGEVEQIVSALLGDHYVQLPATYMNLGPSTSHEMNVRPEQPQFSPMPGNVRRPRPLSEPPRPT

| Structure (SMILES) | IC50 (RON (human)) [nM] | IC50 (MET (human)) [nM] |
| --- | --- | --- |
| C[C@@H](Oc1c(N)ncc2c(C3=CCN(CCN)CC3)coc12)c1c(Cl)ccc(F)c1Cl [Example 43, 3-[1-(2-Aminoethyl)-1,2,3,6-tetrahydropyridin-4-yl]-7-[(R)-1-(2,6-dichloro-3-fluorophenyl)ethoxy]-furo[3,2-c]pyridin-6-ylamine] | < 500 | < 500 |
| COC(=O)c1coc2c(O[C@H](C)c3c(Cl)ccc(F)c3Cl)c(N)ncc12 [Example 175, 6-Amino-7-[(R)-1-(2,6-dichloro-3-fluorophenyl)ethoxy]furo[3,2-c]pyridine-3-carboxylic acid methyl ester] | 5000 to 20000 | 500 to 5000 |
| CCNC(=O)c1csc(-c2coc3c(O[C@H](C)c4c(Cl)ccc(F)c4Cl)c(N)ncc23)c1 [Example 329, 5-{6-Amino-7-[(R)-1-(2,6-dichloro-3-fluorophenyl)ethoxy]furo[3,2-c]pyridin-3-yl}-thiophene-3-carboxylic acid Ethylamide] | 5000 to 20000 | 500 to 5000 |
| CC(Oc1c(N)ncc2c(C3=CCN(C(N)=O)CC3)coc12)c1c(Cl)ccc(F)c1Cl (centres unmarked) [Example 455, 4-{6-Amino-7-[1-(2,6-dichloro-3-fluorophenyl)ethoxy]furo[3,2-c]pyridin-3-yl}-3,6-dihydro-2H-pyridine-1-carboxamide] | 500 to 5000 | < 500 |
| CC(Oc1c(N)ncc2c(-c3cnn(C4CCNCC4)c3)coc12)c1ccc(C(N)=O)cc1 (centres unmarked) [Example 420, 4-{1-[6-Amino-3-(1-piperidin-4-yl-1H-pyrazol-4-yl)furo[3,2-c]pyridin-7-yloxy]ethyl}benzamide] | 5000 to 20000 | 500 to 5000 |
| CCNC(=O)c1ccc(-c2coc3c(O[C@H](C)c4c(Cl)ccc(F)c4Cl)c(N)ncc23)s1 [Example 207, 5-{6-Amino-7-[(R)-1-(2,6-dichloro-3-fluorophenyl)ethoxy]-furo[3,2-c]pyridin-3-yl}-thiophene-2-carboxylic acid ethyl amide] | 500 to 5000 | 500 to 5000 |
| C#CCC(Oc1c(N)ncc2c(C3=CCN(C(N)=O)CC3)coc12)c1c(Cl)ccc(F)c1Cl (centres unmarked) [Example 459, 4-(6-Amino-7-{[1-(2,6-dichloro-3-fluorophenyl)but-3-yn-1-yl]oxy}furo[3,2-c]pyridin-3-yl)-3,6-dihydropyridine-1(2H)-carboxamide] | 500 to 5000 | < 500 |
| CNC(=O)c1csc(-c2coc3c(O[C@H](C)c4c(Cl)ccc(F)c4Cl)c(N)ncc23)c1 [Example 327, 5-{6-Amino-7-[(R)-1-(2,6-dichloro-3-fluorophenyl)ethoxy]furo[3,2-c]pyridin-3-yl}thiophene-3-carboxylic acid methylamide] | 5000 to 20000 | 500 to 5000 |
| Nc1ncc2c(-c3cnn(C4CCNCC4)c3)coc2c1OC(CCc1ccccc1)c1c(Cl)ccc(F)c1Cl (centres unmarked) [Example 368, 7-[1-(2,6-Dichloro-3-fluorophenyl)-3-phenylpropoxy]-3-(1-piperidin-4-yl-1H-pyrazol-4-yl)furo[3,2-c]pyridin-6-ylamine] | 500 to 5000 | 500 to 5000 |
| C[C@@H](Oc1c(N)ncc2c(-c3cnn(C4CCN(C(N)=O)CC4)c3)coc12)c1c(Cl)ccc(F)c1Cl [Example 272, 4-(4-{6-Amino-7-[(1R)-1-(2,6-dichloro-3-fluorophenyl)ethoxy]furo[3,2-c]pyridin-3-yl}-1H-pyrazol-1-yl)piperidine-1-carboxamide] | 500 to 5000 | 500 to 5000 |

The remaining lines, values ahead:

| IC50 (RON (human)) [nM] | IC50 (MET (human)) [nM] | Structure (SMILES) |
| --- | --- | --- |
| 500 to 5000 | < 500 | C[C@@H](Oc1c(N)ncc2c(-c3ccc(C(=O)NCCN4CCCCC4)cc3)coc12)c1c(Cl)ccc(F)c1Cl [Example 103, 4-{6-Amino-7-[(R)-1-(2,6-dichloro-3-fluorophenyl)ethoxy]furo[3,2-c]pyridin-3-yl}-N-(2-piperidin-1-ylethyl)benzamide] |
| 500 to 5000 | 500 to 5000 | C[C@@H](Oc1c(N)ncc2c(-c3cnn(C4CCN(S(C)(=O)=O)CC4)c3)coc12)c1c(Cl)ccc(F)c1Cl [Example 275, 7-[(1R)-1-(2,6-Dichloro-3-fluorophenyl)ethoxy]-3-{1-[1-(methyl-sulfonyl)piperidin-4-yl]-1H-pyrazol-4-yl}furo[3,2-c]pyridin-6-amine] |
| < 500 | < 500 | C[C@@H](Oc1c(N)ncc2c(-c3ccc(CN4CCCC4)s3)coc12)c1c(Cl)ccc(F)c1Cl [Example 213, 7-[(R)-1-(2,6-Dichloro-3-fluorophenyl)ethoxy]-3-(5-pyrrolidin-1-ylmethylthiophen-2-yl)-furo[3,2-c]pyridin-6-ylamine] |
| 500 to 5000 | 500 to 5000 | Nc1ncc2c(-c3cnn(C4CCNCC4)c3)coc2c1OC1CCCc2cccc(Cl)c21 (centres unmarked) [Example 389, 7-(8-Chloro-1,2,3,4-tetrahydronaphthalen-1-yloxy)-3-(1-piperidin-4-yl-1H-pyrazol-4-yl)furo[3,2-c]pyridin-6-ylamine] |
| 500 to 5000 | 500 to 5000 | CC(Cc1c(Cl)cccc1Cl)Oc1c(N)ncc2c(-c3cnn(C4CCNCC4)c3)coc12 (centres unmarked) [Example 417, 7-[2-(2,6-Dichlorophenyl)-1-methylethoxy]-3-(1-piperidin-4-yl-1H-pyrazol-4-yl)furo[3,2-c]pyridin-6-ylamine] |
| < 500 | < 500 | C[C@@H](Oc1c(N)ncc2c(-c3csc(CN(C)C)c3)coc12)c1c(Cl)ccc(F)c1Cl [Example 303, 7-[(R)-1-(2,6-Dichloro-3-fluorophenyl)ethoxy]-3-(5-dimethyl-aminomethylthiophen-3-yl)furo[3,2-c]pyridin-6-ylamine] |
| 500 to 5000 | 500 to 5000 | C[C@@H](Oc1c(N)ncc2c(-c3ccc(N4CCN(C(N)=O)CC4)cc3)coc12)c1c(Cl)ccc(F)c1Cl [Example 320, 4-(4-{6-Amino-7-[(R)-1-(2,6-dichloro-3-fluorophenyl)ethoxy]furo[3,2-c]pyridin-3-yl}phenyl)piperazine-1-carboxamide] |
| 500 to 5000 | < 500 | Nc1ncc2c(-c3cnn(C4CCNCC4)c3)coc2c1O[C@H]1CCC[C@H]1c1ccccc1 [Example 407] |
| 500 to 5000 | 500 to 5000 | Cc1cscc1-c1coc2c(O[C@H](C)c3c(Cl)ccc(F)c3Cl)c(N)ncc12 [Example 111, 7-[(R)-1-(2,6-Dichloro-3-fluorophenyl)ethoxy]-3-(4-methylthiophen-3-yl)furo[3,2-c]pyridin-6-ylamine] |
| < 500 | < 500 | C[C@@H](Oc1c(N)ncc2c(-c3ccc(CN4CCC4)s3)coc12)c1c(Cl)ccc(F)c1Cl [Example 220, 3-(5-Azetidin-1-ylmethylthiophen-2-yl)-7-[(R)-1-(2,6-dichloro-3-fluorophenyl)ethoxy]furo[3,2-c]pyridin-6-ylamine] |
| < 500 | < 500 | COc1cccc(Cl)c1C(C)Oc1c(N)ncc2c(-c3cnn(C4CCNCC4)c3)coc12 (centres unmarked) [Example 359, 7-[1-(2-Chloro-6-methoxyphenyl)ethoxy]-3-(1-piperidin-4-yl-1H-pyrazol-4-yl)furo[3,2-c]pyridin-6-ylamine] |
| < 500 | < 500 | Nc1ncc2c(-c3cnn(C4CCNCC4)c3)coc2c1OC(c1c(F)ccc(F)c1Cl)C1CC1 (centres unmarked) [Example 367, 7-[(2-Chloro-3,6-difluorophenyl)cyclopropylmethoxy]-3-(1-piperidin-4-yl-1H-pyrazol-4-yl)furo[3,2-c]pyridin-6-ylamine] |
